The nature of this assay: Inhibition of Cobetia marina ALP using pNPP as substrate.

Each structure is given as a SMILES string.

This passage reports IC50 results from ChEMBL document CHEMBL4339235, “Guitarrins A-E and Aluminumguitarrin A: 5-Azaindoles from the Northwestern Pacific Marine Sponge Guitarra fimbriata” (J Nat Prod, 2019).

Turning to `O=C(O)c1cc2[nH]ccc2c(CO)n1`, the IC50 (in general, the midpoint of a concentration-inhibition curve) (read-out: IC50) is 2 µM.
For the compound `O=C(O)CCCc1nccc2[nH]ccc12`, the half-inhibitory concentration (IC50) entry is “Not Active”.
Regarding `O=C(O)c1nc(CO)c2cc[nH]c2c1O`, the IC50 (read-out: IC50) is 100 µM.
`OCc1nccc2[nH]ccc12`: the IC50 entry is recorded as “Not Active”.
Same read-out and setting: with `O=C(O)c1nccc2[nH]ccc12` the entry was “Not Active”.
